Patent US20130252816A1, “HERBICIDAL COMPOSITION AND USE THEREOF” (Syngenta Crop Protection LLC, priority 2010, published 2013)

Key:
Assay in all cases: Example 2: alcohol ethoxylate adjuvants without glyphosate, visual % damage, tracksprayer 300 l/ha
Assay type in all cases: in vivo
[1] = tested on: Trifolium repens
From the text: (§1) The effect of different types of alcohol ethoxylate (branched—Genapol X-series, and unbranched—Genapol O-series, differing degrees of ethoxylation, see Table 3 below for more details), on unwanted vegetation (broadleaf weed and grass species), in the absence of glyphosate, was investigated and compared to untreated (water only) control weeds.
(§2) Troughs (measuring 16 cm by 13 cm by 5 cm) were filled with local field soil. Seeds of Veronica persica, Stellaria media, Trifolium repens and Poa annua were sown 24 days before application of test samples. Plants were grown in the glasshouse at 18 to 20° C. and 60% relative humidity. Application of alcohol ethoxylate test samples was carried out using a tracksprayer, spraying at a rate of 300 l/ha. Plants were kept in glasshouse and visual assessment of the estimated percentage damage to the plant was carried out 1, 7, and 14 days from application.
(§3) Damage was assessed as wilting, desiccation or any other kind of visual injury in comparison to the untreated control (water only).

[2] = tested on: Stellaria media
From the text: as §1, §2, §3

[3] = tested on: Veronica persica
From the text: as §1, §2, §3

[4] = tested on: Poa annua
From the text: as §1, §2, §3

Oleyl alcohol polyglycol ether with 2 moles of ethoxylation [GenapolO020]
mean % damage 1 daa Trifolium repens ([1]; adjuvant 1% w/v): 0% | mean % damage 7 daa Trifolium repens ([1]; adjuvant 1% w/v): 0% | mean % damage 14 daa Trifolium repens ([1]; adjuvant 1% w/v): 0% | mean % damage 1 daa Trifolium repens ([1]; adjuvant 1.5% w/v): 0% | mean % damage 7 daa Trifolium repens ([1]; adjuvant 1.5% w/v): 0% | mean % damage 14 daa Trifolium repens ([1]; adjuvant 1.5% w/v): 0% | mean % damage 1 daa Trifolium repens ([1]; adjuvant 2% w/v): 0% | mean % damage 7 daa Trifolium repens ([1]; adjuvant 2% w/v): 0% | mean % damage 14 daa Trifolium repens ([1]; adjuvant 2% w/v): 0% | mean % damage 1 daa Trifolium repens ([1]; adjuvant 2.5% w/v): 0% | mean % damage 7 daa Trifolium repens ([1]; adjuvant 2.5% w/v): 10% | mean % damage 14 daa Trifolium repens ([1]; adjuvant 2.5% w/v): 0% | mean % damage 1 daa Stellaria media ([2]; adjuvant 1% w/v): 0% | mean % damage 7 daa Stellaria media ([2]; adjuvant 1% w/v): 0% | mean % damage 14 daa Stellaria media ([2]; adjuvant 1% w/v): 0% | mean % damage 1 daa Stellaria media ([2]; adjuvant 1.5% w/v): 0% | mean % damage 7 daa Stellaria media ([2]; adjuvant 1.5% w/v): 0% | mean % damage 14 daa Stellaria media ([2]; adjuvant 1.5% w/v): 0% | mean % damage 1 daa Stellaria media ([2]; adjuvant 2% w/v): 0% | mean % damage 7 daa Stellaria media ([2]; adjuvant 2% w/v): 0% | mean % damage 14 daa Stellaria media ([2]; adjuvant 2% w/v): 0% | mean % damage 1 daa Stellaria media ([2]; adjuvant 2.5% w/v): 0% | mean % damage 7 daa Stellaria media ([2]; adjuvant 2.5% w/v): 5% | mean % damage 14 daa Stellaria media ([2]; adjuvant 2.5% w/v): 0% | mean % damage 1 daa Veronica persica ([3]; adjuvant 1% w/v): 0% | mean % damage 7 daa Veronica persica ([3]; adjuvant 1% w/v): 0% | mean % damage 14 daa Veronica persica ([3]; adjuvant 1% w/v): 0% | mean % damage 1 daa Veronica persica ([3]; adjuvant 1.5% w/v): 0% | mean % damage 7 daa Veronica persica ([3]; adjuvant 1.5% w/v): 0% | mean % damage 14 daa Veronica persica ([3]; adjuvant 1.5% w/v): 0% | mean % damage 1 daa Veronica persica ([3]; adjuvant 2% w/v): 0% | mean % damage 7 daa Veronica persica ([3]; adjuvant 2% w/v): 0% | mean % damage 14 daa Veronica persica ([3]; adjuvant 2% w/v): 0% | mean % damage 1 daa Veronica persica ([3]; adjuvant 2.5% w/v): 0% | mean % damage 7 daa Veronica persica ([3]; adjuvant 2.5% w/v): 0% | mean % damage 14 daa Veronica persica ([3]; adjuvant 2.5% w/v): 0% | mean % damage 1 daa Poa annua ([4]; adjuvant 1% w/v): 0% | mean % damage 7 daa Poa annua ([4]; adjuvant 1% w/v): 0% | mean % damage 14 daa Poa annua ([4]; adjuvant 1% w/v): 0% | mean % damage 1 daa Poa annua ([4]; adjuvant 1.5% w/v): 0% | mean % damage 7 daa Poa annua ([4]; adjuvant 1.5% w/v): 0% | mean % damage 14 daa Poa annua ([4]; adjuvant 1.5% w/v): 0% | mean % damage 1 daa Poa annua ([4]; adjuvant 2% w/v): 0% | mean % damage 7 daa Poa annua ([4]; adjuvant 2% w/v): 0% | mean % damage 14 daa Poa annua ([4]; adjuvant 2% w/v): 0% | mean % damage 1 daa Poa annua ([4]; adjuvant 2.5% w/v): 0% | mean % damage 7 daa Poa annua ([4]; adjuvant 2.5% w/v): 0% | mean % damage 14 daa Poa annua ([4]; adjuvant 2.5% w/v): 0%

Iso-tridecyl alcohol polyglycol ether with 2 moles of ethoxylation [GenapolX020]
mean % damage 1 daa Trifolium repens ([1]; adjuvant 1% w/v): 0% | mean % damage 7 daa Trifolium repens ([1]; adjuvant 1% w/v): 0% | mean % damage 14 daa Trifolium repens ([1]; adjuvant 1% w/v): 0% | mean % damage 1 daa Trifolium repens ([1]; adjuvant 1.5% w/v): 5% | mean % damage 7 daa Trifolium repens ([1]; adjuvant 1.5% w/v): 5% | mean % damage 14 daa Trifolium repens ([1]; adjuvant 1.5% w/v): 0% | mean % damage 1 daa Trifolium repens ([1]; adjuvant 2% w/v): 10% | mean % damage 7 daa Trifolium repens ([1]; adjuvant 2% w/v): 5% | mean % damage 14 daa Trifolium repens ([1]; adjuvant 2% w/v): 0% | mean % damage 1 daa Trifolium repens ([1]; adjuvant 2.5% w/v): 10% | mean % damage 7 daa Trifolium repens ([1]; adjuvant 2.5% w/v): 5% | mean % damage 14 daa Trifolium repens ([1]; adjuvant 2.5% w/v): 10% | mean % damage 1 daa Stellaria media ([2]; adjuvant 1% w/v): 0% | mean % damage 7 daa Stellaria media ([2]; adjuvant 1% w/v): 0% | mean % damage 14 daa Stellaria media ([2]; adjuvant 1% w/v): 0% | mean % damage 1 daa Stellaria media ([2]; adjuvant 1.5% w/v): 0% | mean % damage 7 daa Stellaria media ([2]; adjuvant 1.5% w/v): 0% | mean % damage 14 daa Stellaria media ([2]; adjuvant 1.5% w/v): 0% | mean % damage 1 daa Stellaria media ([2]; adjuvant 2% w/v): 0% | mean % damage 7 daa Stellaria media ([2]; adjuvant 2% w/v): 5% | mean % damage 14 daa Stellaria media ([2]; adjuvant 2% w/v): 5% | mean % damage 1 daa Stellaria media ([2]; adjuvant 2.5% w/v): 0% | mean % damage 7 daa Stellaria media ([2]; adjuvant 2.5% w/v): 5% | mean % damage 14 daa Stellaria media ([2]; adjuvant 2.5% w/v): 0% | mean % damage 1 daa Veronica persica ([3]; adjuvant 1% w/v): 0% | mean % damage 7 daa Veronica persica ([3]; adjuvant 1% w/v): 0% | mean % damage 14 daa Veronica persica ([3]; adjuvant 1% w/v): 0% | mean % damage 1 daa Veronica persica ([3]; adjuvant 1.5% w/v): 0% | mean % damage 7 daa Veronica persica ([3]; adjuvant 1.5% w/v): 0% | mean % damage 14 daa Veronica persica ([3]; adjuvant 1.5% w/v): 0% | mean % damage 1 daa Veronica persica ([3]; adjuvant 2% w/v): 5% | mean % damage 7 daa Veronica persica ([3]; adjuvant 2% w/v): 5% | mean % damage 14 daa Veronica persica ([3]; adjuvant 2% w/v): 5% | mean % damage 1 daa Veronica persica ([3]; adjuvant 2.5% w/v): 5% | mean % damage 7 daa Veronica persica ([3]; adjuvant 2.5% w/v): 5% | mean % damage 14 daa Veronica persica ([3]; adjuvant 2.5% w/v): 5% | mean % damage 1 daa Poa annua ([4]; adjuvant 1% w/v): 0% | mean % damage 7 daa Poa annua ([4]; adjuvant 1% w/v): 0% | mean % damage 14 daa Poa annua ([4]; adjuvant 1% w/v): 0% | mean % damage 1 daa Poa annua ([4]; adjuvant 1.5% w/v): 0% | mean % damage 7 daa Poa annua ([4]; adjuvant 1.5% w/v): 5% | mean % damage 14 daa Poa annua ([4]; adjuvant 1.5% w/v): 0% | mean % damage 1 daa Poa annua ([4]; adjuvant 2% w/v): 0% | mean % damage 7 daa Poa annua ([4]; adjuvant 2% w/v): 5% | mean % damage 14 daa Poa annua ([4]; adjuvant 2% w/v): 0% | mean % damage 1 daa Poa annua ([4]; adjuvant 2.5% w/v): 0% | mean % damage 7 daa Poa annua ([4]; adjuvant 2.5% w/v): 5% | mean % damage 14 daa Poa annua ([4]; adjuvant 2.5% w/v): 0%
